Laboratory results published in PubChem BioAssay AID1963868 (Molecular Pharmacology Branch, DTP, NCI, 2024).

System: KRAS PDC tumor spheroids (HUVEC+MSC), viability
Assay: Anticancer human tumor 254851-301-R-J1-PDC patient-derived colon carcinoma cell line growth inhibition [KRAS2]
Conditions: for IC50: curve of first compound; for viability, T/C: stronger effect = lower value
Summary of the method: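 Combination screen of spheroid viability in tumor-cell co-cultures with endothelial (HUVEC) and mesenchymal stem cell stroma. Each agent was tested in half-log dilutions, topping at clinical Cmax or at 10 microM without a known Cmax.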

[1] = second compound 0.0316 µM, first compound 0.0316 µM
[2] = second compound 0.0316 µM, first compound 0.1 µM
[3] = second compound 0.0316 µM, first compound 0.316 µM
[4] = second compound 0.0316 µM, first compound 1 µM
[5] = second compound 0.0316 µM, first compound 3.16 µM
[6] = second compound 0.0316 µM, first compound 10 µM
[7] = second compound 0.1 µM, first compound 0.0316 µM
[8] = second compound 0.1 µM, first compound 0.1 µM
[9] = second compound 0.1 µM, first compound 0.316 µM
[10] = second compound 0.1 µM, first compound 1 µM
[11] = second compound 0.1 µM, first compound 3.16 µM
[12] = second compound 0.1 µM, first compound 10 µM
[13] = second compound 0.316 µM, first compound 0.0316 µM
[14] = second compound 0.316 µM, first compound 0.1 µM
[15] = second compound 0.316 µM, first compound 0.316 µM
[16] = second compound 0.316 µM, first compound 1 µM
[17] = second compound 0.316 µM, first compound 3.16 µM
[18] = second compound 0.316 µM, first compound 10 µM
[19] = second compound 1 µM, first compound 0.0316 µM
[20] = second compound 1 µM, first compound 0.1 µM
[21] = second compound 1 µM, first compound 0.316 µM
[22] = second compound 1 µM, first compound 1 µM
[23] = second compound 1 µM, first compound 3.16 µM
[24] = second compound 1 µM, first compound 10 µM
[25] = second compound 3.16 µM, first compound 0.0316 µM
[26] = second compound 3.16 µM, first compound 0.1 µM
[27] = second compound 3.16 µM, first compound 0.316 µM
[28] = second compound 3.16 µM, first compound 1 µM
[29] = second compound 3.16 µM, first compound 3.16 µM
[30] = second compound 3.16 µM, first compound 10 µM
[31] = second compound 0.0316 µM, first compound 0.000316 µM
[32] = second compound 0.0316 µM, first compound 0.001 µM
[33] = second compound 0.0316 µM, first compound 0.00316 µM
[34] = second compound 0.0316 µM, first compound 0.01 µM
[35] = second compound 0.1 µM, first compound 0.000316 µM
[36] = second compound 0.1 µM, first compound 0.001 µM
[37] = second compound 0.1 µM, first compound 0.00316 µM
[38] = second compound 0.1 µM, first compound 0.01 µM
[39] = second compound 0.316 µM, first compound 0.000316 µM
[40] = second compound 0.316 µM, first compound 0.001 µM
[41] = second compound 0.316 µM, first compound 0.00316 µM
[42] = second compound 0.316 µM, first compound 0.01 µM
[43] = second compound 1 µM, first compound 0.000316 µM
[44] = second compound 1 µM, first compound 0.001 µM
[45] = second compound 1 µM, first compound 0.00316 µM
[46] = second compound 1 µM, first compound 0.01 µM
[47] = second compound 3.16 µM, first compound 0.000316 µM
[48] = second compound 3.16 µM, first compound 0.001 µM
[49] = second compound 3.16 µM, first compound 0.00316 µM
[50] = second compound 3.16 µM, first compound 0.01 µM
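Further: spheroids exposed to compounds for seven days before readout.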
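Wherever viability, T/C is given: 100% = DMSO vehicle control luminescence of the spheroids.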

| SMILES | IC50 (second compound 0.0316 µM) [nM] | IC50 (second compound 0.1 µM) [nM] | IC50 (second compound 0.316 µM) [nM] | IC50 (second compound 1 µM) [nM] | IC50 (second compound 3.16 µM) [nM] | viability, T/C [1] [%] | viability, T/C [2] [%] | viability, T/C [3] [%] | viability, T/C [4] [%] | viability, T/C [7] [%] | viability, T/C [8] [%] | viability, T/C [9] [%] | viability, T/C [10] [%] | viability, T/C [13] [%] | viability, T/C [14] [%] | viability, T/C [15] [%] | viability, T/C [19] [%] | viability, T/C [20] [%] | viability, T/C [25] [%] | viability, T/C [26] [%] | other results |
| --- | --- | --- | --- | --- | --- | --- | --- | --- | --- | --- | --- | --- | --- | --- | --- | --- | --- | --- | --- | --- | --- |
| CC(C)NCC(C(=O)N1CCN(c2ncnc3c2C(C)CC3O)CC1)c1ccc(Cl)cc1 (stereo not given) + C=CC(=O)N1CCN(c2nc(OCC3CCCN3C)nc3c2CCN(c2cccc4cccc(C)c24)C3)CC1CC#N | > 10000 | > 10000 | > 10000 | > 10000 | 85.7 | 96.9 | 96.1 | 87.4 | 98.2 | 107 | 101 | 99.9 | 77.1 | 97.7 | 93.9 | 92 | 95.4 | 98.5 | 62 | 48.2 | viability, T/C [5]: 95.8%; viability, T/C [6]: 94.7%; viability, T/C [11]: 89.9%; viability, T/C [12]: 92.1%; viability, T/C [16]: 95.9%; viability, T/C [17]: 88.8%; viability, T/C [18]: 87.6%; viability, T/C [21]: 91.6%; viability, T/C [22]: 86.3%; viability, T/C [23]: 97.9%; viability, T/C [24]: 86.2%; viability, T/C [27]: 37%; viability, T/C [28]: 18.1%; viability, T/C [29]: 22.6%; viability, T/C [30]: 8.5% |
| CC(C)n1nc(-c2ccc3oc(N)nc3c2)c2c(N)ncnc21 + C=CC(=O)N1CCN(c2nc(OCC3CCCN3C)nc3c2CCN(c2cccc4cccc(C)c24)C3)CC1CC#N | 15.3 | 23.2 | 15.3 | 14.1 | 2.27 | 30.1 | 21.1 | – | – | 45.2 | 22.3 | – | – | 31.6 | 23.6 | – | 34.6 | 23.1 | 29.2 | 12.6 | viability, T/C [31]: 118%; viability, T/C [32]: 109%; viability, T/C [33]: 87.6%; viability, T/C [34]: 63.1%; viability, T/C [35]: 113%; viability, T/C [36]: 115%; viability, T/C [37]: 90.6%; viability, T/C [38]: 68.1%; viability, T/C [39]: 111%; viability, T/C [40]: 115%; viability, T/C [41]: 101%; viability, T/C [42]: 61%; viability, T/C [43]: 108%; viability, T/C [44]: 118%; viability, T/C [45]: 83%; viability, T/C [46]: 58.8%; viability, T/C [47]: 86%; viability, T/C [48]: 52.7%; viability, T/C [49]: 56.7%; viability, T/C [50]: 23.9% |
| CC1(C)CCC(CN2CCN(c3ccc(C(=O)NS(=O)(=O)c4ccc(NCC5CCOCC5)c([N+](=O)[O-])c4)c(Oc4cnc5[nH]ccc5c4)c3)CC2)=C(c2ccc(Cl)cc2)C1 + C=CC(=O)N1CCN(c2nc(OCC3CCCN3C)nc3c2CCN(c2cccc4cccc(C)c24)C3)CC1CC#N | > 10000 | > 10000 | > 10000 | 6390 | 371 | 95.8 | 101 | 97.3 | 98 | 98.5 | 106 | 92.4 | 100 | 106 | 107 | 80.9 | 88 | 106 | 57 | 56.2 | viability, T/C [5]: 95.6%; viability, T/C [6]: 90%; viability, T/C [11]: 90.3%; viability, T/C [12]: 86.1%; viability, T/C [16]: 85.3%; viability, T/C [17]: 81%; viability, T/C [18]: 73.8%; viability, T/C [21]: 101%; viability, T/C [22]: 81.4%; viability, T/C [23]: 70.7%; viability, T/C [24]: 37.8%; viability, T/C [27]: 45%; viability, T/C [28]: 36.4%; viability, T/C [29]: 0.19%; viability, T/C [30]: 0.19% |
| CCN1CCN(Cc2ccc(Nc3ncc(F)c(-c4cc(F)c5nc(C)n(C(C)C)c5c4)n3)nc2)CC1 + C=CC(=O)N1CCN(c2nc(OCC3CCCN3C)nc3c2CCN(c2cccc4cccc(C)c24)C3)CC1CC#N | 605 | 645 | 600 | 131 | 55.3 | 90.8 | 78.1 | 64.4 | 39.2 | 83.3 | 71.5 | 66.2 | 40.6 | 94.2 | 77 | 60.5 | 57.5 | 49.7 | 52.5 | 43.4 | viability, T/C [33]: 102%; viability, T/C [34]: 97.3%; viability, T/C [37]: 98.9%; viability, T/C [38]: 95.5%; viability, T/C [41]: 98%; viability, T/C [42]: 87.6%; viability, T/C [16]: 42%; viability, T/C [45]: 59.5%; viability, T/C [46]: 63.2%; viability, T/C [21]: 44.5%; viability, T/C [22]: 34.6%; viability, T/C [49]: 65.6%; viability, T/C [50]: 56.8%; viability, T/C [27]: 40.1%; viability, T/C [28]: 16% |
| CCNC(=O)CC1N=C(c2ccc(Cl)cc2)c2cc(OC)ccc2-n2c(C)nnc21 (stereo not given) + C=CC(=O)N1CCN(c2nc(OCC3CCCN3C)nc3c2CCN(c2cccc4cccc(C)c24)C3)CC1CC#N | > 10000 | > 10000 | > 10000 | 3640 | < 31.6 | 98.7 | 90.4 | 88.5 | 92.2 | 102 | 87.8 | 94.6 | 78.9 | 105 | 92.9 | 94.7 | 66.2 | 66.5 | 46.9 | 53.7 | viability, T/C [5]: 80.6%; viability, T/C [6]: 66.9%; viability, T/C [11]: 73.5%; viability, T/C [12]: 68.9%; viability, T/C [16]: 72.6%; viability, T/C [17]: 68%; viability, T/C [18]: 73.4%; viability, T/C [21]: 61.2%; viability, T/C [22]: 52.9%; viability, T/C [23]: 48.9%; viability, T/C [24]: 47.6%; viability, T/C [27]: 46.1%; viability, T/C [28]: 43.5%; viability, T/C [29]: 29.9%; viability, T/C [30]: 23.3% |
| Cn1ncnc1[C@H]1c2n[nH]c(=O)c3cc(F)cc(c23)N[C@@H]1c1ccc(F)cc1 + C=CC(=O)N1CCN(c2nc(OCC3CCCN3C)nc3c2CCN(c2cccc4cccc(C)c24)C3)CC1CC#N | > 100 | > 100 | > 100 | > 100 | > 100 | 101 | 90.9 | – | – | 103 | 100 | – | – | 96.1 | 93 | – | 95.1 | 99.8 | 50.7 | 62.9 | viability, T/C [31]: 116%; viability, T/C [32]: 112%; viability, T/C [33]: 101%; viability, T/C [34]: 97.4%; viability, T/C [35]: 107%; viability, T/C [36]: 105%; viability, T/C [37]: 98.5%; viability, T/C [38]: 100%; viability, T/C [39]: 100%; viability, T/C [40]: 104%; viability, T/C [41]: 103%; viability, T/C [42]: 94.8%; viability, T/C [43]: 101%; viability, T/C [44]: 106%; viability, T/C [45]: 94.6%; viability, T/C [46]: 88.9%; viability, T/C [47]: 62.8%; viability, T/C [48]: 68.4%; viability, T/C [49]: 61.5%; viability, T/C [50]: 47.8% |
